The source of these data is patent publication US4965280A, “Antifungal carbinols” (E. I. Du Pont de Nemours and Company, priority 1989, dated 1990).

Assay [1] concerns Rhizoctonia solani. The assay is described as follows: Example K cotton blight. As to conditions: 336 h, 5 kg/ha, read-out: disease control rating, Ex. K. In kind it is in vivo. How it is done:
[…] Seeds and soil were then inoculated with a mixture of sand, cereal and mycelium of the fungus Rhizoctonia solani, causal agent of cotton blight, and incubated in a growth chamber at 30° C. for 14 days. Disease ratings were then made.

A further assay relates to Venturia inaequalis. The assay is described as follows: Example A apple scab. In kind it is in vivo. As to conditions: 100 PPM, read-out: disease control rating, Ex. A. The method, boiled down:
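Acetone solution (6% of final vol.) → suspension at 100 or 20 ppm in water + 250 ppm TREM 014 surfactant; sprayed to run-off on apple seedlings.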

In a further assay the test system is Pyricularia oryzae. In words: whole plant or invertebrate. Particulars: Pyricularia oryzae, 120 h, read-out: disease control rating, Ex. E, 100 PPM. In kind it is in vivo.
The next assay relates to Sclerotium rolfsii. In words: Example M southern blight. Particulars: Agroathelia rolfsii, 336 h; 5 kg/ha; read-out: disease control rating, Ex. M. Format: in vivo. How it is done:
[…] Seeds and soil were then inoculated with a mixture of sand, cereal and mycelium of the fungus Sclerotium rolfsii, causal agent of sourthern blight, and incubated in a growth chamber at 30° C. for 14 days. Disease ratings were then made.

The subject of assay [2] is Cercosporidium personatum. In words: Example B Peanut Late Leafspot. In kind it is in vivo. Particulars: Nothopassalora personata; 100 PPM; read-out: disease control rating, Ex. B. The method, boiled down:
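Foliar spray on peanut seedlings, to run-off; test rates 100 or 20 ppm. Formulation: acetone at 6% of final volume, water with 250 ppm polyhydric alcohol ester surfactant.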

The subject of assay [3] is Erysiphe graminis f. sp. tritici. The assay is described as follows: Example D wheat powdery mildew. Format: in vivo. As to conditions: Blumeria graminis, 144 h; 100 PPM; read-out: disease control rating, Ex. D. The method, boiled down: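 Spray to run-off on wheat seedlings; test suspension 100 or 20 ppm compound, acetone 6% v/v, 250 ppm polyhydric alcohol ester surfactant in water.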

The next assay has as its system Botrytis cinerea. The assay is described as follows: Example C bean grey mold. In kind it is in vivo. As to conditions: Botrytis cinerea, 24 h, 100 PPM; read-out: disease control rating, Ex. C. The method, boiled down: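 Broad bean seedlings; foliar spray to run-off. Cmpd 100 or 20 ppm in water + 250 ppm TREM 014, acetone 6% v/v final.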
The next assay has as its system Plasmorpara viticola. In words: Example I grape downy mildew. In kind it is in vivo. Particulars: read-out: disease control rating, Ex. I. A digest of the protocol: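 Compounds were dissolved in acetone (6% of final volume) and suspended at 100 or 20 ppm in purified water with 250 ppm TREM 014 surfactant (polyhydric alcohol esters). Grape seedlings were sprayed with this suspension to run-off.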

A further assay concerns Puccinia recondita. In words: Example G wheat leaf rust. Format: in vivo. As to conditions: 100 PPM, read-out: disease control rating, Ex. G.
The subject of a further assay is Pythium aphanadermatum. The assay is described as follows: Example J cucumber damping off. Format: in vivo. As to conditions: Pythium, 336 h; 5 kg/ha; read-out: disease control rating, Ex. J. How it is done:
[…] Seeds and soil were then inoculated with a mixture of sand, cereal and mycelium of the fungus Pythium aphanadermatum, causal agent of cucumber damping off, and incubated in a growth chamber at 30° C. for 14 days. Disease ratings were then made.

Assay [4] relates to Candida albicans ATCC 11651. The assay is described as follows: In vitro antifungal MIC, microtiter broth dilution. Particulars: Candida albicans, ATCC11651, 24 h, read-out: MIC values, C. albicans, 30°, 24 hours.
Description: In vitro activity (Table 5) is expressed in terms of the minimal inhibitory concentration (MIC) of the test compound which inhibits the growth of yeasts and fungi.
The target organisms, Candida albicans ATCC 11651 and Aspergillus fumigatus ATCC 28214 are standardized, [V. Bezjak, J. Clinical Micro., 21 509-512 (1984)], to a concentration of 10^7 organisms/ml and maintained at -70° until use. Test compounds are solubilized in dimethyl sulfoxide (DMSO) and diluted in Eagle's Minimum Essential Medium (EMEM) broth to achieve a final concentration of 200 μg/ml. Stock solutions of standard antifungal agents are stored at -70° and diluted in EMEM as required.
The in vitro assay utilizes a microtiter broth dilution technique [L. Polonelli and G. Morace, Mycopathologia, 86, 21-28 (1984)] and C. […] The appropriate wells are inoculated with the required organism (C. albicans at 1×10^4 organisms/ml and A. fumigatus at 5×10^5 organisms/ml) and the assay incubated at 30° for 24 hours.
In assay [5] the test system is Candida albicans ATCC 11651. In words: In vivo systemic Candida infection in mice, primary assay. As to conditions: Candida albicans, 150 mg/kg per day, read-out: % Survival. On the set-up: species or system Candida albicans; CF-1 female mice. The method, boiled down:
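CF-1 female mice (20 g, 10 per group) were infected IV with 0.2 ml of 1×10^7/ml C. albicans ATCC 11651, then given test compound subcutaneously at 50 or 150 mg/kg/day at 1 and 6 h post-infection and once daily for three more days. Survival was followed for 21 days against infected untreated mice; ≥70% protection at 14 days was scored active.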

Assay [6] concerns Rhizoctonia solani. In words: Example F rice sheath blight. In kind it is in vivo. Particulars: Rhizoctonia solani, 144 h, 100 PPM; read-out: disease control rating, Ex. F. The method, boiled down:
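Spray to run-off on rice seedlings; test suspension 100 or 20 ppm compound in water + 250 ppm TREM 014 surfactant, acetone 6% final volume.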

Assay [7] deals with Aspergillus fumigatus ATCC 28214. The assay is described as follows: In vitro antifungal MIC, microtiter broth dilution. As to conditions: Aspergillus fumigatus, ATCC28214, 24 h, read-out: MIC values, A. fumigatus, 30°, 24 hours. On the technique in general: Dilution methods test growth across graded concentrations, often in twofold steps.
A further assay relates to Phytophthora infestans. The assay is described as follows: whole plant or invertebrate. Format: in vivo. Particulars: Phytophthora infestans, in Solanum lycopersicum, read-out: disease control rating, Ex. H, 100 PPM.

Values after ≈ are worked out from the molar mass of the structure shown. Where two headings read alike, the source gives them in different places. A value given as a limit tells only on which side of the number the result lay.

Usually MIC stands for the lowest concentration found to suppress growth. As to `C=C(c1ccc(Cl)cc1Cl)C(O)(Cn1cncn1)c1ccc(Cl)cc1` (centres unmarked) [Example 101], the pest or weed control at 5000 g/ha in the assay with Rhizoctonia solani [1], in the assay with Sclerotium rolfsii and in the assay on Pythium aphanadermatum was 0% each time. The pest or weed control at 100 ppm in the assay on Venturia inaequalis stood at 100%; with Pyricularia oryzae, 0%; in assay [2] it was 100%; in [3], 83%; in the assay on Botrytis cinerea, 94%; in the assay on Plasmorpara viticola, 100%. In addition, the figures for the pest or weed control at 100 ppm with Puccinia recondita, in the assay on Rhizoctonia solani [6] and in the assay with Phytophthora infestans were 100%, 80% and 0%, respectively. The MIC in [4] amounted to 0.03 µg/mL (≈ 0.076 µM); in assay [7], 12.5 µg/mL (≈ 31.7 µM). For the same molecule, the responders at 150 mg/kg in [5] (ATCC11651, 168 h, day 7) was 100%; in assay [5] (ATCC11651, 336 h, day 14) it was 90%; in assay [5] (ATCC11651, 504 h, day 21) it was 60%.

`C=C(c1ccc(Cl)cc1Cl)C(O)(Cn1cncn1)c1ccc(F)cc1` (centres unmarked) [Example 99]: the pest or weed control at 5000 g/ha in the assay with Rhizoctonia solani [1] and with Pythium aphanadermatum was 0% each time. The pest or weed control at 100 ppm worked out at 100% in the assay with Venturia inaequalis; 98% in the assay on Pyricularia oryzae; 100% in assay [2]; 83% in assay [3]; 89% in the assay on Botrytis cinerea; 83% with Plasmorpara viticola. The pest or weed control at 100 ppm in the assay on Puccinia recondita is 100%; in the assay on Rhizoctonia solani [6] it was 61%; in the assay on Phytophthora infestans, 0%. For the same molecule, the MIC in assay [4] came out at 0.05 µg/mL (≈ 0.132 µM); in assay [7], 6.3 µg/mL (≈ 16.7 µM). The responders at 150 mg/kg in [5] (ATCC11651, 168 h, day 7) came to 100%; in [5] (ATCC11651, 336 h, day 14), 100%; in [5] (ATCC11651, 504 h, day 21) it was 40%.

On to `C=C(c1ccc(F)cc1F)C(O)(Cn1cncn1)c1ccc(F)cc1` (centres unmarked) [Example 94, 2-(4-Fluorophenyl)-3-(2,4-difluorophenyl)-1-(1H-1,2,4-triazol-1-yl)-3-buten-2-ol], for which the pest or weed control at 5000 g/ha in the assay with Rhizoctonia solani [1] and with Pythium aphanadermatum was 0% each time. The pest or weed control at 100 ppm was determined as 86% in the assay with Venturia inaequalis; 78% in the assay on Pyricularia oryzae; 61% in [2]; 98% in [3]; 96% in the assay on Botrytis cinerea; 0% with Plasmorpara viticola. Moreover, the pest or weed control at 100 ppm stood at 100% in the assay on Puccinia recondita, 36% with Rhizoctonia solani [6] and 0% in the assay with Phytophthora infestans. Also, the MIC was 0.4 µg/mL (≈ 1.16 µM) in assay [4] and 50 µg/mL (≈ 145 µM) in [7]. For the same molecule, the responders at 150 mg/kg in assay [5] (ATCC11651, 168 h, day 7) was found to be 100%; in assay [5] (ATCC11651, 336 h, day 14) it was 40%; in [5] (ATCC11651, 504 h, day 21) it was 10%.

In the case of `C=C(c1ccc(Cl)cc1)C(O)(Cn1cncn1)c1ccc(F)cc1` (centres unmarked) [Example 25], the pest or weed control at 100 ppm with Venturia inaequalis was determined as 100%; in the assay on Pyricularia oryzae, 31%; in [2], 100%; in assay [3], 91%; with Botrytis cinerea it was 96%; in the assay on Plasmorpara viticola, 0%. Moreover, the figures for the pest or weed control at 100 ppm in the assay with Puccinia recondita, in the assay with Rhizoctonia solani [6] and in the assay with Phytophthora infestans were 97%, 48% and 0%, respectively. Further, the pest or weed control at 5000 g/ha in the assay on Sclerotium rolfsii came out at 35%; in the assay with Pythium aphanadermatum, 0%. For the same molecule, the MIC in [4] was determined as 1.6 µg/mL (≈ 4.65 µM); in assay [7], 25 µg/mL (≈ 72.7 µM). Also, the responders at 150 mg/kg is 100% in assay [5] (ATCC11651, 168 h, day 7); 100% in [5] (ATCC11651, 336 h, day 14); 50% in [5] (ATCC11651, 504 h, day 21).

As for `C=C(c1ccc(Cl)cc1)C(O)(Cn1cncn1)c1ccccc1Cl` (centres unmarked) [Example 671], the pest or weed control at 100 ppm in the assay with Venturia inaequalis amounted to 100%; with Pyricularia oryzae, 84%; in [2], 100%; in assay [3], 94%; in the assay with Botrytis cinerea, 92%; with Plasmorpara viticola, 84%. Moreover, the results for the pest or weed control at 100 ppm with Puccinia recondita, in the assay with Rhizoctonia solani [6] and with Phytophthora infestans were 100%, 100% and 0%, respectively. For the same molecule, the pest or weed control at 5000 g/ha in the assay with Sclerotium rolfsii and in the assay with Pythium aphanadermatum was 0% each time. Besides, the MIC in [4] stood at 0.03 µg/mL (≈ 0.0833 µM); in assay [7], 0.2 µg/mL (≈ 0.555 µM). Also, the responders at 150 mg/kg is 100% in assay [5] (ATCC11651, 168 h, day 7); 100% in assay [5] (ATCC11651, 336 h, day 14); 60% in [5] (ATCC11651, 504 h, day 21).

In the case of `C=C(c1ccc(F)cc1)C(O)(Cn1cncn1)c1ccc(Cl)cc1` (centres unmarked) [Example 3], the pest or weed control at 5000 g/ha in the assay on Rhizoctonia solani [1] and in the assay with Pythium aphanadermatum was 0% in each case. Besides, the pest or weed control at 100 ppm turned out to be 100% in the assay on Venturia inaequalis; 5% in the assay with Pyricularia oryzae; 100% in assay [2]; 93% in [3]; 93% with Botrytis cinerea; 0% with Plasmorpara viticola. Further, the figures for the pest or weed control at 100 ppm with Puccinia recondita, in the assay on Rhizoctonia solani [6] and in the assay with Phytophthora infestans were 100%, 93% and 0%, respectively. Further, the MIC was at most 0.4 µg/mL in assay [4] and 50 µg/mL (≈ 145 µM) in assay [7]. Besides, the responders at 150 mg/kg in assay [5] (ATCC11651, 168 h, day 7) came to 100%; in assay [5] (ATCC11651, 336 h, day 14), 100%; in [5] (ATCC11651, 504 h, day 21), 60%.

As to `C=C(c1ccccc1)C(O)(Cn1cncn1)c1ccccc1` (centres unmarked) [Example 608], the pest or weed control at 5000 g/ha in the assay on Rhizoctonia solani [1] and in the assay on Pythium aphanadermatum was 0% in each case. Further, the pest or weed control at 100 ppm in the assay on Venturia inaequalis is 87%; in the assay with Pyricularia oryzae it was 4%; in assay [2] it was 100%; in assay [3] it was 98%; with Botrytis cinerea, 98%; with Plasmorpara viticola, 0%. The values for the pest or weed control at 100 ppm in the assay on Puccinia recondita, in the assay with Rhizoctonia solani [6] and in the assay with Phytophthora infestans were 100%, 81% and 0%, respectively. Besides, the MIC in assay [4] is 0.4 µg/mL (≈ 1.37 µM); in assay [7], 6.3 µg/mL (≈ 21.6 µM). In addition, the responders at 150 mg/kg in assay [5] (ATCC11651, 168 h, day 7) stood at 100%; in assay [5] (ATCC11651, 336 h, day 14), 70%; in assay [5] (ATCC11651, 504 h, day 21), 20%.
